Reference: publication PMC6321019 (International Journal of Molecular Sciences, 2018)
Structures can show the parent of a compound that is named as a salt.

How the values were obtained:
[1] = biological target: T1, hemagglutinin (HA)-tagged wild-type human histamine H1 receptor (HA-WT) (Homo sapiens, UniProt P35367); assay: [3H]mepyramine displacement binding to membranes of CHO cells expressing HA-WT; details: van 't Hoff plots (37, 25, 14 °C); ∆Hº vs -T∆Sº
T1 construct: membrane preparations

[2] = biological target: T2, HA-tagged Lys191 mutant of human histamine H1 receptor to alanine (HA-K191A) (Homo sapiens, UniProt P35367, K191A); assay: [3H]mepyramine displacement binding to membranes of CHO cells expressing HA-K191A; details: HA-K191A vs HA-WT; for reduction of affinity by mutation of Lys191 to alanine (times): 25 °C; for Change in Entropy-Dependent Hydrophobic Binding Forces by the mutation of Lys191 to alanine: -T∆Sº from van 't Hoff plots (37, 25, 14 °C); for Change in Enthalpy-Dependent Electrostatic Binding Forces by the mutation of Lys191 to alanine: ∆Hº from van 't Hoff plots (37, 25, 14 °C)
T2 construct: expressed in transfected cells; host or cells: CHO cells; membrane preparations
T2 sequence (P35367 whole entry K191A): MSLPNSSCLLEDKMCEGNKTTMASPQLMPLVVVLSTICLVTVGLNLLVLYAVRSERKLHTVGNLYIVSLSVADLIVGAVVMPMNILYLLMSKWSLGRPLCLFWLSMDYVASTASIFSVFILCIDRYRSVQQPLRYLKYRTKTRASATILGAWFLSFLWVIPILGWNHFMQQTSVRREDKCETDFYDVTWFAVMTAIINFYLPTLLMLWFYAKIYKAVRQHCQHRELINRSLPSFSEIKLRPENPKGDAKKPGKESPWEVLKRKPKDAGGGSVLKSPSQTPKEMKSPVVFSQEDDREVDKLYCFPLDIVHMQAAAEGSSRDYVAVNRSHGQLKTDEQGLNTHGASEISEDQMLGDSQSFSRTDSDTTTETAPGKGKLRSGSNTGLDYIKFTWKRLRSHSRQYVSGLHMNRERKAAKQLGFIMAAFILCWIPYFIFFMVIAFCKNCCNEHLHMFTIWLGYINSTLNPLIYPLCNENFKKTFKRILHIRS

T1 sequence (P35367 whole entry): as the sequence (P35367 whole entry K191A) above, with A191K counted along it

SMILES: O=C(O)COCCN1CCN([C@@H](c2ccccc2)c2ccc(Cl)cc2)CC1 [(S)-cetirizine, (S)-cetirizine dihydrochloride]
- thermodynamic driving force of binding (source of negative ∆Gº) to HA-WT [1]: predominantly achieved by enthalpy (∆Hº)
- reduction of affinity by mutation of Lys191 to alanine (times) [2]: ~6.2 times
- Change in Binding Affinity by the mutation of Lys191 to alanine [2]: ↓**
- Change in Entropy-Dependent Hydrophobic Binding Forces by the mutation of Lys191 to alanine [2]: ↑**
- enthalpy-dependent electrostatic binding forces, change by mutation of Lys191 to alanine (in words) ([2]; van 't Hoff plots): significantly reduced
- Change in Enthalpy-Dependent Electrostatic Binding Forces by the mutation of Lys191 to alanine [2]: ↓**

SMILES: O=C(O)COCCN1CCN([C@H](c2ccccc2)c2ccc(Cl)cc2)CC1 [levocetirizine, Levocetirizine dihydrochloride]
- thermodynamic driving force of binding (source of negative ∆Gº) to HA-WT [1]: caused by both enthalpy (∆Hº) and entropy (-T∆Sº)
- reduction of affinity by mutation of Lys191 to alanine (times) [2]: approximately 3.6 times
- Change in Binding Affinity by the mutation of Lys191 to alanine [2]: ↓**
- Change in Entropy-Dependent Hydrophobic Binding Forces by the mutation of Lys191 to alanine [2]: ↓*
- enthalpy-dependent electrostatic binding forces, change by mutation of Lys191 to alanine (in words) ([2]; van 't Hoff plots): significantly increased
- entropy-dependent hydrophobic binding forces, change by mutation of Lys191 to alanine (in words) ([2]; van 't Hoff plots): significantly reduced
- Change in Enthalpy-Dependent Electrostatic Binding Forces by the mutation of Lys191 to alanine [2]: ↑*
